This experiment addresses T1, human NK1 receptor (Homo sapiens, UniProt P25103).
T1 construct: expressed in transfected cells; host or cells: CHO cells infected with the Semliki virus expression system; membrane suspension used
The experiment in a line: [3H]substance P binding at human NK1 receptors in CHO cells. Conditions: affinity to the NK-1 receptor; [3H]substance P 0.6 nM displacement, CHO cell membranes, 60 min at room temperature. On the procedure:
The affinity of test compounds for the NK1 receptor was evaluated at human NK1 receptors in CHO cells infected with the human NK1 receptor (using the Semliki virus expression system) and radiolabelled with [^3H]substance P (final concentration 0.6 nM). Binding assays were performed in HEPES buffer (50 mM, pH 7.4) containing BSA (0.04%) leupeptin (8 μg/ml), MnCl2 (3 mM) and phosphoramidon (2 μM). Binding assays consisted of 250 μl of membrane suspension (1.25×10^5 cells/assay tube), […] of buffer of displacing agent and 125 μl of [^3H]substance P. Displacement curves were determined with at least seven concentrations of the compound. The assay tubes were incubated for 60 min at room temperature after which time the tube contents were rapidly filtered under vacuum through GF/C filters presoaked for 60 min with PEI (0.3%) with 2×2 ml washes of HEPES buffer (50 mM, pH 7.4). The radioactivity retained on the filters was measured by scintillation counting. All assays were performed in triplicate in at least 2 separate experiments.
T1 sequence (P25103 whole entry): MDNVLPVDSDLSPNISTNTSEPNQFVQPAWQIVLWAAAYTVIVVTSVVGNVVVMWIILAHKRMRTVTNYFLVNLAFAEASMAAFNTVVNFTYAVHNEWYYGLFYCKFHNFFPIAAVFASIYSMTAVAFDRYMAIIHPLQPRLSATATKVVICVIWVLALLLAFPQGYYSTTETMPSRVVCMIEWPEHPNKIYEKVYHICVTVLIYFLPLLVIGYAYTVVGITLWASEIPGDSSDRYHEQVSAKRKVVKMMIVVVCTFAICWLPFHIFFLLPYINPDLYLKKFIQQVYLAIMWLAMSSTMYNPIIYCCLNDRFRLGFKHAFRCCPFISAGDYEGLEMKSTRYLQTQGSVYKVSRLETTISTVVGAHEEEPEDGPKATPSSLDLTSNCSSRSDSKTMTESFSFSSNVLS
For the compound `COCCN1CC(c2ccc(F)c(F)c2)C2(CCN(C(=O)c3cc(C(F)(F)F)cc(C(F)(F)F)c3)CC2)OC1=O` (racemic) [Example 19, (5RS)-9-(3,5-bis-trifluoromethyl-benzoyl)-5-(3,4-difluoro-phenyl)-3-(2-methoxy-ethyl)-1-oxa-3,9-diaza-spiro[5.5]undecan-2-one], the affinity corresponds to a Ki of 19.1 nM.
`COc1nc(OC)nc(N2CC(c3ccccc3)C3(CCN(C(=O)c4cc(C(F)(F)F)cc(C(F)(F)F)c4)CC3)OC2=O)n1` (stereo not drawn) [Example 17, (5RS)-9-(3,5-bis-trifluoromethyl-benzoyl)-3-(4,6-dimethoxy-[1,3,5]triazin-2-yl)-5-phenyl-oxa-1-3,9-diaza-spiro[5.5]undecan-2-one] showed an inhibition constant Ki of 13.2 nM. This Ki and that of the compound before are within 1.5-fold of each other.
To `O=C1OC2(CCN(C(=O)c3cc(C(F)(F)F)cc(C(F)(F)F)c3)CC2)C(c2ccccc2)CN1CCCO` (racemic) [Example 21, (5RS)-9-(3,5-bis-trifluoromethyl-benzoyl)-3-(3-hydroxy-propyl)-5-phenyl-1-oxa-3,9-diaza-spiro[5.5]undecan-2-one] belongs 6.76 nM.

Broadly, the Ki is a dissociation constant, usually derived from enzyme kinetics or from competition with a known ligand. High values mean a looser hold on the target, low ones a stronger hold on the target.

The record behind these values is US6599900B2, “1-oxa-3,9-diaza-spiro[5,5]undecan-2-ones” (Syntex (U.S.A.) LLC, priority 2001, dated 2003).
